Columns and labels:
CMV = conditions: cited from earlier work
VZV = conditions: requires VZV thymidine kinase for phosphorylation; cited from earlier work
HSV = conditions: cited from earlier work
[1] = Pain score (0-10) in herpes zoster patients treated with valacyclovir; type: in vivo, human; conditions: oral valacyclovir 1 g 3 times daily for 7 days, 50 patients with follow-up
Protocol: Methods. All human-study protocols were approved by the Committee for the Protection of Human Subjects of the Lyndon B. Johnson Space Center (control subjects) and by the Institutional Review Board of the University of Texas Health Sciences Center (patients with herpes zoster). Informed consent was obtained from all subjects. The 54 patients with herpes zoster consisted of 29 women (21-82 years old) and 25 men (35-79 years old) (Table 2). All patients with herpes zoster were treated with oral valacyclovir (1 g 3 times daily) for 7 consecutive days. Pain was described by all patients on a scale of 0 (no pain) to 10 (worst pain) (Jacox et al., 1994). Six control subjects consisted of 5 women (24-64 years old) and 1 person with chronic pain due to malignancy or non-VZV inflammatory disease. Fourteen additional healthy control subjects consisted of 9 men and 5 women (34-70 years old). Three saliva samples were collected at weekly intervals from all 6 control subjects with chronic pain and from the 14 healthy control subjects.

[2] = system: varicella-zoster virus (VZV) DNA in saliva; assay: Salivary VZV DNA by real-time PCR in herpes zoster patients treated with valacyclovir; type: in vivo, human; conditions: oral valacyclovir 1 g 3 times daily for 7 days, 50 patients with follow-up
Protocol: Methods. All human-study protocols were approved by the Committee for the Protection of Human Subjects of the Lyndon B. Johnson Space Center (control subjects) and by the Institutional Review Board of the University of Texas Health Sciences Center (patients with herpes zoster). Informed consent was obtained from all subjects. The 54 patients with herpes zoster consisted of 29 women (21-82 years old) and 25 men (35-79 years old) (Table 2). All patients with herpes zoster were treated with oral valacyclovir (1 g 3 times daily) for 7 consecutive days. Pain was described by all patients on a scale of 0 (no pain) to 10 (worst pain) (Jacox et al., 1994). […]
Saliva samples from all subjects were obtained by having subjects suck on a cotton plug for 1-2 min, after which the saturated cotton was placed in a salivette tube (Sarstedt). […] Quantitative real-time polymerase chain reaction (PCR) was performed in a TaqMan 7700 sequence detector (Applied Biosystems) using fluorescence-based simultaneous amplification and product detection.
Primers and probes specific for VZV, herpes simplex virus (HSV)-1 and GAPDH DNA sequences have been described elsewhere (Mehta et al., 2004; Cohrs et al., 2000). […] At the height of CPE, cells were analyzed by PCR with HSV-1-specific and VZV-specific primers (Mehta et al., 2004; Cohrs et al., 2000) and by immunohistochemistry for viral antigens.

| SMILES | activity against CMV (CMV) | activity against VZV (VZV) | activity against HSV (HSV) | patients in whom pain decreased ([1]; 14-day study period) [%] | patients in whom pain disappeared ([1]; end of 2-week study period) [%] | patients in whom VZV DNA disappeared from saliva ([2]; 2-week study period) [%] | patients in whom virus DNA copy numbers decreased in saliva ([2]; 14-day study period) [%] |
| --- | --- | --- | --- | --- | --- | --- | --- |
| CC#Cc1cn([C@@H]2O[C@H](CO)[C@@H](O)[C@@H]2O)c(=O)[nH]c1=O [882C] | without any significant activity | specific activity against VZV | without any significant activity | – | – | – | – |
| CC(C)[C@H](N)C(=O)OCCOCn1cnc2c(=O)[nH]c(N)nc21 [valacyclovir] | – | – | – | 86 | 74 | 82 | 94 |
